Two compounds from patent US20100035926A1, “PYRAZOLE DERIVATIVES AS NON-STEROIDAL GLUCOCORTICOID RECEPTOR LIGANDS” (priority 2006, published 2010) can be followed below.

One data set addresses T1, glucocorticoid receptor (Homo sapiens, UniProt P04150).
T1 construct: a partially purified full length glucocorticoid receptor
T1 sequence (P04150 1-777): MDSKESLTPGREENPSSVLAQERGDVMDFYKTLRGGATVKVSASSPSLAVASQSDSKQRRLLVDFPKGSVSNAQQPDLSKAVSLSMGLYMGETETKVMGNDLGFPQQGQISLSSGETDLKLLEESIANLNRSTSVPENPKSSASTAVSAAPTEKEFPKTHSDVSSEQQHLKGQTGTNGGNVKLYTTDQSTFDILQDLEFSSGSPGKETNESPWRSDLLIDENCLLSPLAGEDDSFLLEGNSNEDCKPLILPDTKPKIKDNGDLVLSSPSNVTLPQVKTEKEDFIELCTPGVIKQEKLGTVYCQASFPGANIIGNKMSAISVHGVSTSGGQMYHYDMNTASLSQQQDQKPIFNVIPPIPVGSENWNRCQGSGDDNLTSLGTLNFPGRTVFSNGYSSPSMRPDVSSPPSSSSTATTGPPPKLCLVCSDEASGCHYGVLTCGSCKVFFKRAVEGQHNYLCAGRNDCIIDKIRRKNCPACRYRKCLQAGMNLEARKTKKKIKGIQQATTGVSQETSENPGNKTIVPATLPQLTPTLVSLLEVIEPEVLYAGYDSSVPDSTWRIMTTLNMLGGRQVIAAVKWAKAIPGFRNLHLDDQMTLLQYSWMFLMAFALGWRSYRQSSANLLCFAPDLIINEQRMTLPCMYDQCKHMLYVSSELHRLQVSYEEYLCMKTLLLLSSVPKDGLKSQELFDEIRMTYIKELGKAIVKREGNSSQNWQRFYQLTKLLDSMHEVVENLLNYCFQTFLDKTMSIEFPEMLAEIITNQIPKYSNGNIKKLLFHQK
As to the kind of experiment: Glucocorticoid Receptor Binding Assay (fluorescence polarisation, displacement of Alexa 555 labelled dexamethasone derivative). Particulars: at least once in this assay; read-out: glucocorticoid binding pIC50 (converted). In short, it runs like this: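 Partially purified full-length GR incubated with test compound and fluorescent dexamethasone plus GR-stabilising buffer components, 2 hr at room temperature in the dark. Binding scored as displacement of tracer, read as decrease in fluorescence polarisation.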

Data set [1] concerns the target T2, GR (Homo sapiens, UniProt P04150).
T2 construct: endogenous in cells; host or cells: A549 (human lung carcinoma, ECACC No. 86012804), stably transfected with reporter plasmids only
T2 sequence (P04150 1-777): T1 sequence (P04150 1-777)
Kind of data set: GR Functional Assay - NFκB Assay (A549 SPAP cells, TNFα stimulated). Format: cell-based. In short, it runs like this: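 Stably transfected A549 SPAP cells at 0.16×10^6/ml in DMEM with 10% FCS were added to compound and stimulated with TNFα to drive NFκB-dependent SPAP expression. After 1 hr equilibration at room temperature, SPAP was read colorimetrically with pNPP in diethanolamine buffer, pH 9.8.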

Data set [2] concerns the target T2, GR. As to the kind of experiment: GR Agonist Assay - MMTV Assay (A549 MMTV cells, renilla luciferase reporter). Format: cell-based. Conditions: 6 h, agonists, read-out: average maximum asymptote in the MMTV agonist assay. In short, it runs like this: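 Stably transfected A549 MMTV cells carry a GR-driven luciferase reporter. Cells at 0.1×10^6/ml in DMEM with 10% FCS and 25 mM HEPES were added to wells containing compound. After detection reagent, plates were held about 15 mins at room temperature and luminescence was read.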

The nature of data set [3]: Assay for Brain Penetrance. Format: in vivo. Conditions: brain and plasma, rat, single intravenous dose 1 mg/kg, read-out: brain to plasma ratio. Here is the method:
Each rat received a single intravenous dose at a level of 1 mg/kg. The dose was formulated in 10% DMSO/50% PEG200/40% sterile water. Terminal blood samples were taken at 5 or 15 mins after dosing, by cardiac puncture following anaesthesia with isofluorane. The brains were removed at the same time point.
The compounds were extracted from 20 μL plasma by protein precipitation using 120 μL acetonitrile containing an analogue compound as an internal standard. The filtered extracts were collected into a 96 well plate and were diluted with an equal volume of 10% acetonitrile containing 0.1% formic acid in water (v/v). The plate was then mixed on a plate shaker for at least 5 mins before analysis by LC-MS/MS against a calibration line prepared in control plasma.
Each brain was weighed, then homogenised in 3 ml acetonitrile:water (10:90v/v). The compounds were extracted from 200 μL of the resulting homogenate by protein precipitation using 600 μL acetonitrile containing an analogue compound as an internal standard. The extracts were centrifuged and 150 μl of each was filtered and transferred to a 96 well plate. The aliquot was diluted with 10% acetonitrile containing 0.1% formic acid in water (v/v). The plate was mixed on a plate shaker for at least 5 mins before analysis by LC-MS/MS against a calibration line prepared in control brain homogenate.

In the next data set the target is T3, Progesterone Receptor (Homo sapiens, UniProt P06401).
T3 construct: expressed in transfected cells; host or cells: CV-1 cells transduced with PRb-BacMam and MMTV-BacMam
T3 sequence (P06401 1-933): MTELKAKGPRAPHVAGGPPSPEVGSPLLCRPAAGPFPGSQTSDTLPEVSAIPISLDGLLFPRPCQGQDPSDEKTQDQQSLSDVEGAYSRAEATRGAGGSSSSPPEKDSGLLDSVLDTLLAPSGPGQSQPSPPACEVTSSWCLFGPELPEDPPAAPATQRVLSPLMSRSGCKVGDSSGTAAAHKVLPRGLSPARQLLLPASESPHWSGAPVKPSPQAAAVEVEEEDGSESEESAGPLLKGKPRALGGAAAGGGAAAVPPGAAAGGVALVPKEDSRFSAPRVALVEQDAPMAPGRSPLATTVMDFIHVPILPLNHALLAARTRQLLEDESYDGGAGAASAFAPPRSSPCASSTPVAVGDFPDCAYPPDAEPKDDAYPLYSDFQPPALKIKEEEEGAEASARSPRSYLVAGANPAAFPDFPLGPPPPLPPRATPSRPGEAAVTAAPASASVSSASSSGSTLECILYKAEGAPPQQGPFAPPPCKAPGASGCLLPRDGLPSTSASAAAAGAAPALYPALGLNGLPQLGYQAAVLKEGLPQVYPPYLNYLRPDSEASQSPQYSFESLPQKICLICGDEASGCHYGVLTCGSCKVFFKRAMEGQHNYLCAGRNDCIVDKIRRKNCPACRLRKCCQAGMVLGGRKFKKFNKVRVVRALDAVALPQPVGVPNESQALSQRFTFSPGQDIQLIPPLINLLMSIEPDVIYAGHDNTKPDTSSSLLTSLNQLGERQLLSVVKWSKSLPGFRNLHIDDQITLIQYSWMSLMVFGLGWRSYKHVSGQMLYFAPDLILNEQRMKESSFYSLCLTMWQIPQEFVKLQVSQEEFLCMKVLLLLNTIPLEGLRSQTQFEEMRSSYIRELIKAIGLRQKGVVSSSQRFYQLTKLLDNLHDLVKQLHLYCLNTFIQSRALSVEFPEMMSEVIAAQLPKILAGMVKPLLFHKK
As to the kind of experiment: Assay for Progesterone Receptor Agonist Activity (CV-1 cells, PRb-BacMam, MMTV-BacMam). Type of data set: cell-based. Conditions: at least once in this assay, read-out: progesterone receptor agonist pEC50 (converted).

Where two headings read alike, the source gives them in different places. A value given as a limit tells only on which side of the number the result lay.

`CCN(CC(O)(CNC(=O)c1cnn(-c2ccc(F)c(F)c2)c1N)C(F)(F)F)C(=O)c1ccccc1` (racemic) [Example 24 (racemic), 5-amino-1-(3,4-difluorophenyl)-N-(2-{[ethyl(phenylcarbonyl)amino]methyl}-3,3,3-trifluoro-2-hydroxypropyl)-1H-pyrazole-4-carboxamide]: the IC50 at glucocorticoid receptor is less than 1000 nM; on GR [1] (at least once in the NFkB assay, A549 SPAP cells, read-out: pIC50 in the NFkB assay (converted)) it was less than 1000 nM; at GR [1] (at least once, examples listed as agonists in NFkB and MMTV assays, read-out: potency pIC50 in the NFKB assay (converted)) it was less than 316 nM. For the same compound, the Emax on GR [1] (agonists, A549 SPAP cells, read-out: average maximum asymptote in the NFkB assay) was not below 40%; at GR [2], not below 40%. Also, the Kp at 5 min in data set [3] was not below 0.1.

For the compound `CCN(CC(O)(CNC(=O)c1cnn(-c2ccc(F)cc2)c1N)C(F)(F)F)C(=O)c1ncccc1Cl` (single isomer, unassigned) [Example 3 Enantiomer 1, N-[2-[({[5-Amino-1-(4-fluorophenyl)-1H-pyrazol-4-yl]carbonyl]amino)methyl]-3,3,3-trifluoro-2-hydroxypropyl}-3-chloro-N-ethyl-2-Pyridinecarboxamide], the EC50 on Progesterone Receptor was more than 1000 nM. For the same compound, the Kp at 5 min in data set [3] is not below 0.1.
